In patent US20200268728A1, “DRUG TARGETING CANCER STEM CELL” (Sumitomo Dainippon Pharma Co., Ltd., priority 2016, published 2020):
Counter-ions that a name gives are not always drawn.

These compounds were tested on H460 cells (assay: Combination with Example 24, inhibitory effect on sphere-forming ability (Test Example 6)). Conditions: H460 sphere culture, test compound combined with Example 24 (2-1000 nmol/L), 4 days.
Assay type: cell-based, human
Method: After the culture, CellTiterGlo (Promega) was added into all of the wells, and the plate is allowed to stand at room temperature for 10 minutes to measure the intensity of luminescence of each well. […] The formula for calculating the rate is shown below.
Sphere formation rate (%)=(Lsample)/(Lcontrol)×100
The value obtained by dividing the sphere formation rate by 100 and subtracting the calculated value from 1 is defined as a sphere formation inhibitory effect. The formula for calculating the effect is shown below.
Sphere formation inhibitory effect=1−(Sphere formation rate/100)
Also, the measured cell survival rate of the combination was defined as (Ld).
The minimum value thereof (sCI) was used as the criteria for screening.
With `Cc1c(NC(=O)OC[C@@H]2COCCN2)cn2ncnc(Nc3ccc4c(cnn4Cc4cccc(F)c4)c3)c12` [BMS-599626] the “sCI, minimum (Ld)/(Lc)” value was 0.081.
For `CC(C)(C)Cn1c(N)nc2ccc(-c3[nH]c(C(C)(C)C)nc3-c3ccc(F)cc3)nc21` [LY2228820], the “sCI, minimum (Ld)/(Lc)” value was 0.020.
For `Cc1nc(Nc2ncc(C(=O)Nc3c(C)cccc3Cl)s2)cc(N2CCN(CCO)CC2)n1` [Dasatinib], the “sCI, minimum (Ld)/(Lc)” value was 0.514.
In the case of `Cn1cc(-c2ccc3nnc(C(F)(F)c4ccc5ncccc5c4)n3n2)cn1` [JNJ-38877605], the “sCI, minimum (Ld)/(Lc)” value is reported as 0.711.
With `CS(=O)(=O)CCNCc1ccc(-c2ccc3ncnc(Nc4ccc(OCc5cccc(F)c5)c(Cl)c4)c3c2)o1` [Lapatinib] the “sCI, minimum (Ld)/(Lc)” value was 0.076.
With `C=C1/C(=C\C=C2/CCC[C@]3(C)[C@@H]([C@H](C)/C=C/[C@H](C)C(C)C)CC[C@@H]23)C[C@@H](O)C[C@@H]1O` [Doxercalciferol] the “sCI, minimum (Ld)/(Lc)” value was 0.304.
In the case of `Cc1cc2c(C(C)C)c(O)c(O)c(C=O)c2c(O)c1-c1c(C)cc2c(C(C)C)c(O)c(O)c(C=O)c2c1O` [Gossypol], the “sCI, minimum (Ld)/(Lc)” value is reported as 0.026.
In the case of `Cc1ccc(NC(=O)c2ccc(CN3CCN(C)CC3)cc2)cc1Nc1nc(-c2cccnc2)cs1` [Masitinib], the “sCI, minimum (Ld)/(Lc)” value is reported as 0.010.
For `CCc1cc(Nc2nccc(-c3c(-c4ccc(OC)c(C(=O)Nc5c(F)cccc5F)c4)nc4ccccn34)n2)c(OC)cc1N1CCC(N2CCN(S(C)(=O)=O)CC2)CC1` [GSK1904529A], the “sCI, minimum (Ld)/(Lc)” value was 0.166.
`C=CCNC1=C2C[C@@H](C)C[C@H](OC)[C@H](O)[C@@H](C)/C=C(\C)[C@H](OC(N)=O)[C@@H](OC)/C=C\C=C(/C)C(=O)NC(=CC1=O)C2=O` [Tanespimycin] was tested, and the “sCI, minimum (Ld)/(Lc)” value was 0.386.
For `Cc1cccc(Nc2nc(-c3ccncc3)cs2)c1` [STF-62247], the “sCI, minimum (Ld)/(Lc)” value was 0.221.
For `Cn1cncc1[C@@](N)(c1ccc(Cl)cc1)c1ccc2c(c1)c(-c1cccc(Cl)c1)cc(=O)n2C` [Tipifarnib], the “sCI, minimum (Ld)/(Lc)” value was 0.564.
With `Cc1c[nH]c(-c2cnc(NCCNc3ccc(C#N)cn3)nc2-c2ccc(Cl)cc2Cl)n1` [CHIR-99021] the “sCI, minimum (Ld)/(Lc)” value was 0.378.
With `COc1ccc(COc2cc3oc(=O)c4cc(C(C)O)ccc4c3cc2OC)cc1` (stereo not shown) [Palomid 529] the “sCI, minimum (Ld)/(Lc)” value was 0.428.
For `Cc1ccc(F)c(NC(=O)Nc2ccc(-c3cccc4[nH]nc(N)c34)cc2)c1` [Linifanib], the “sCI, minimum (Ld)/(Lc)” value was 0.142.
With `CN1CCN(c2nc(C3=C(c4c[nH]c5ccccc45)C(=O)NC3=O)c3ccccc3n2)CC1` [Sotrastaurin] the “sCI, minimum (Ld)/(Lc)” value was 0.030.
In the case of `O=C(CCCCCCC(=O)Nc1ccccc1)NO` [Vorinostat], the “sCI, minimum (Ld)/(Lc)” value is reported as 0.573.
With `COc1ccc(-c2ccc3c(N4CCOC[C@@H]4C)nc(N4CCOC[C@@H]4C)nc3n2)cc1CO` [AZD8055] the “sCI, minimum (Ld)/(Lc)” value was 0.651.
`COc1ccc2cc(-c3nc(-c4ccc([S+](C)[O-])cc4)[nH]c3-c3ccncc3)ccc2c1` (stereo not shown) [Tie2 kinase inhibitor] was tested, and the “sCI, minimum (Ld)/(Lc)” value was 0.123.
For `Cc1ccc(Nc2nccc(N(C)c3ccc4c(C)n(C)nc4c3)n2)cc1S(N)(=O)=O` [Pazopanib], the “sCI, minimum (Ld)/(Lc)” value was 0.507.

What follows are compounds tested on HCT-116 cells (assay: Test for inhibiting sphere-forming ability of cancer cells (Test Example 1)). Conditions: Homo sapiens, 96 h, non-adherent serum-free sphere culture, 4 days, CellTiter-Glo, read-out: IC50 (μmol/L), Sphere IC50 value, concentration for 50% inhibition of cell proliferation.
Assay type: cell-based, human
Method: The reliable methods established for measuring the self-renewal ability of cells which is one of the CSC's properties include a method for measuring the sphere-forming ability of cancer cells in non-adherent condition in the absence of serum (Cancer Res 65, 5506-5511 (2005)). HCT-116 cells were available from the American Type Culture Collection (ATCC). HCT-116 cells were cultured at 37° C. and 5% CO2 using the McCoy's 5a medium containing 10% fetal bovine serum (FBS), 100 U/ml penicillin, and 100 μg/ml streptomycin. HCT-116 cells were seeded in a 384 Well Black Clear Bottom Ultra-Low Attachment Microplate (Corning Cat. No. 3827) in an amount of 350-800 cells/well using the DMEM/F12 medium containing 2% B27 supplement (GIBCO), 20 ng/mL epidermal growth factor (EGF) (peprotech), 10 ng/mL basic fibroblast growth factor (bFGF) (peprotech), 5 μg/mL insulin (Sigma), and 1% penicillin/streptomycin. The test compounds were added into each well to adjust the final concentration of DMSO to 0.1%, and the cells were cultured for 4 days. The number of viable cells in each well was then measured with CellTiter-Glo® Luminescent Cell Viability Assay (Promega) to calculate the concentration of each test compound for 50% inhibition of cell proliferation (Sphere IC50 value; μmol/L).
The experiment of Test Example 1 was performed for the compounds of each Example.
Compound `O=C(Nc1ccc2c(c1)CCCN2)c1cn(Cc2cc(F)c(F)c(F)c2)cn1` [Example 33, N-(1,2,3,4-Tetrahydroquinolin-6-yl)-1-(3,4,5-trifluorobenzyl)-1H-imidazole-4-carboxamide dihydrochloride] has an IC50 of 0.66 µmol/L.
Compound `Nc1cc(C(=O)Nc2cn(Cc3cc(F)c(F)c(F)c3)cn2)cnc1CO` [Example 59, 5-amino-6-(hydroxymethyl)-N-[1-(3,4,5-trifluorobenzyl)-1H-imidazol-4-yl]nicotinamide] has an IC50 of 0.01 µmol/L.
`O=C(Nc1cn(Cc2cccc(C(F)(F)F)c2)cn1)c1cnc(CO)cn1` [Example 26] showed an IC50 of 0.053 µmol/L.
`O=C(Nc1cn(Cc2cccc(C(F)(F)F)c2)cn1)c1cnc(CO)c(C(F)(F)F)c1` [Example 25] was tested, and the IC50 was 0.07 µmol/L.
Compound `O=C(Nc1cn(Cc2cccc(C(F)(F)F)c2)cn1)c1ccc(CO)nc1` [Example 22, 6-(hydroxymethyl)-N-{1-[3-(trifluoromethyl)benzyl]-1H-imidazol-4-yl}nicotinamide] has an IC50 of less than 0.01 µmol/L.
In the case of `O=C(Nc1cn(Cc2cccc(C(F)(F)F)c2)cn1)c1cc(CO)on1` [Example 27], the IC50 is reported as 0.653 µmol/L.
In the case of `O=C(Nc1cn(Cc2cccc(C(F)(F)F)c2)cn1)c1csc(CO)n1` [Example 18], the IC50 is reported as 0.024 µmol/L.
Work on `O=C(Nc1cn(Cc2cc(F)c(F)c(F)c2)cn1)c1ccc(CO)nc1` [Example 20, 6-(Hydroxymethyl)-N-[1-(3,4,5-trifluorobenzyl)-1H-imidazol-4-yl]nicotinamide] yielded an IC50 of 0.007 µmol/L.
`O=C(Nc1cn(Cc2cccc(C(F)(F)F)c2)cn1)c1ccc(CO)cn1` [Example 15, 5-(Hydroxymethyl)-N-{1-[3-(trifluoromethyl)benzyl]-1H-imidazol-4-yl}picolinamide] gave an IC50 of 0.03 µmol/L.
`O=C(Nc1ccc(CO)nc1)c1cn(Cc2cc(F)c(F)c(F)c2)cn1` [Example 28, N-[6-(Hydroxymethyl)pyridin-3-yl]-1-(3,4,5-trifluorobenzyl)-1H-imidazole-4-carboxamide] gave an IC50 of less than 0.01 µmol/L.
`O=C(Nc1ccc2nc(CO)ccc2c1)c1cn(Cc2cc(F)c(F)c(F)c2)cn1` [Example 29] showed an IC50 of 0.079 µmol/L.
`O=C(Nc1cn(Cc2cccc(C(F)(F)F)c2)cn1)c1cnc(CO)c(C(F)F)c1` [Example 23, 5-(difluoromethyl)-6-(hydroxymethyl)-N-{1-[3-(trifluoromethyl)benzyl]-1H-imidazol-4-yl}nicotinamide] was tested, and the IC50 was less than 0.01 µmol/L.
In the case of `Cc1cc(C(=O)Nc2cn(Cc3cc(F)c(F)c(F)c3)cn2)cnc1CO` [Example 55, 6-(Hydroxymethyl)-5-methyl-N-[1-(3,4,5-trifluorobenzyl)-1H-imidazol-4-yl]nicotinamide], the IC50 is reported as less than 0.01 µmol/L.
`Nc1cc(C(=O)Nc2cn(Cc3cccc(C(F)(F)F)c3)cn2)cnc1CO` [Example 58, 5-Amino-6-(hydroxymethyl)-N-{1-[3-(trifluoromethyl)benzyl]-1H-imidazol-4-yl}nicotinamide] showed an IC50 of 0.029 µmol/L.
In the case of `O=C(Nc1cn(Cc2cc(F)c(F)c(F)c2)cn1)c1csc(CO)n1` [Example 19], the IC50 is reported as 0.077 µmol/L.
For `O=C(Nc1cn(Cc2cccc(Cl)c2)cn1)c1ccc(CO)nc1` [Example 21], the IC50 was 0.056 µmol/L.

Same assay, conditions: non-adherent serum-free sphere culture, 4 days, CellTiter-Glo, read-out: IC50 (μmol/L), Sphere IC50 value, concentration for 50% inhibition of cell proliferation
`COc1ccc(C(=O)Nc2cn(Cc3ccc(F)cc3F)cn2)cc1OC` [Example 12, N-[1-(2,4-difluorobenzyl)-1H-imidazol-4-yl]-3,4-dimethoxybenzamide] was tested, and the IC50 was 0.09 µmol/L.

These compounds were tested on HCT116 cells (assay: Combination with Example 24, inhibitory effect on sphere-forming ability (Test Example 6)). Conditions: HCT116 sphere culture, test compound combined with Example 24 (2-1000 nmol/L), 4 days.
Assay type: cell-based, human
In the case of `Cc1nc(Nc2ncc(C(=O)Nc3c(C)cccc3Cl)s2)cc(N2CCN(CCO)CC2)n1` [Dasatinib], the “sCI, minimum (Ld)/(Lc)” value is reported as 0.171.
With `CCC(C)(C)C(=O)O[C@H]1C[C@@H](C)C=C2C=C[C@H](C)[C@H](CC[C@@H]3C[C@@H](O)CC(=O)O3)[C@H]21` [Simvastatin] the “sCI, minimum (Ld)/(Lc)” value was 0.257.
With `CS(=O)(=O)CCNCc1ccc(-c2ccc3ncnc(Nc4ccc(OCc5cccc(F)c5)c(Cl)c4)c3c2)o1` [Lapatinib] the “sCI, minimum (Ld)/(Lc)” value was 0.024.
In the case of `CC[C@H](C)C(=O)O[C@H]1C[C@@H](C)C=C2C=C[C@H](C)[C@H](CC[C@@H]3C[C@@H](O)CC(=O)O3)[C@H]21` [Lovastatin], the “sCI, minimum (Ld)/(Lc)” value is reported as 0.150.
`CCN(CC)CCNC(=O)c1c(C)[nH]c(/C=C2\C(=O)Nc3ccc(-c4csc(-c5ccccc5)n4)cc32)c1C` [Amcasertib] was tested, and the “sCI, minimum (Ld)/(Lc)” value was 0.017.
`CC[C@H](C)C(=O)O[C@H]1C[C@H](O)C=C2C=C[C@H](C)[C@H](CC[C@@H](O)C[C@@H](O)CC(=O)O)[C@H]21` [Pravastatin] was tested, and the “sCI, minimum (Ld)/(Lc)” value was 0.810.
`CC(C)c1c(C(=O)Nc2ccccc2)c(-c2ccccc2)c(-c2ccc(F)cc2)n1CC[C@@H](O)C[C@@H](O)CC(=O)O` [Atorvastatin] was tested, and the “sCI, minimum (Ld)/(Lc)” value was 0.3.
For `CC/C(=C(\c1ccccc1)c1ccc(OCCN(C)C)cc1)c1ccccc1` [Tamoxifen], the “sCI, minimum (Ld)/(Lc)” value was 0.046.
In the case of `CN(C)CCOc1ccc(/C(=C(/CCCl)c2ccccc2)c2ccccc2)cc1` [Toremifene], the “sCI, minimum (Ld)/(Lc)” value is reported as 0.020.
In the case of Raloxifen, the “sCI, minimum (Ld)/(Lc)” value is reported as 0.010.
With `CC[C@@H]1C(=O)N(C)c2cnc(Nc3ccc(C(=O)NC4CCN(C)CC4)cc3OC)nc2N1C1CCCC1` [BI 2536] the “sCI, minimum (Ld)/(Lc)” value was 0.623.
`CN1CCC(CNc2ccc3ncc(-c4cccc(OC(F)(F)F)c4)n3n2)CC1` [SGI-1776] was tested, and the “sCI, minimum (Ld)/(Lc)” value was 0.026.
For `O=C(Nc1ccccc1-c1cn2c(CN3CCNCC3)csc2n1)c1cnc2ccccc2n1` [SRT1720], the “sCI, minimum (Ld)/(Lc)” value was 0.007.
In the case of `CC(=O)c1cc2c(o1)C(=O)c1ccccc1C2=O` [Napabucasin], the “sCI, minimum (Ld)/(Lc)” value is reported as 0.159.
`CC(C)n1c(/C=C/C(O)CC(O)CC(=O)O)c(-c2ccc(F)cc2)c2ccccc21` (stereo not shown) [Fluvastatin] was tested, and the “sCI, minimum (Ld)/(Lc)” value was 0.163.
